Data on eleven molecules can be found in patent US9840498B2, “Substituted quinazolin-4-one derivatives” (NOVARTIS AG, priority 2013, dated 2017).

The target of the test is PI 3-Kinase Gamma (Homo sapiens (Human), UniProt P48736). In words: Cellular U937 AKT assay for PI 3-kinase gamma. The format is cell-based. Particulars: U937 cells, MIP1α-stimulated AKT phosphorylation, read-out: Cell PI3K gamma IC50. On the procedure: The U937 monocyte cell line is maintained in a basal medium of RPMI 1640 supplemented with 10% heat inactivated FCS, 100 U/ml Penicillin, 100 ug/ml streptomycin and 2 mM L-glutamine (Invitrogen). U937 suspension culture is maintained by seeding cells at a density of 0.125×10^6 cells per ml in fresh medium every three or four days. Cells are incubated at 37° C., 5% CO2. […] Before beginning the cell manipulations described below, the MSD (Meso Scale Discovery) assay plate is blocked by addition of 150 ul/well blocking buffer supplied and incubated with shaking for a minimum of one hour at room temperature. All steps of the assay must be performed quickly, with accurately timed incubation periods and observing temperature controls where indicated. […] Falcon tube, counted and centrifuged for eight minutes at 300 g at room temperature. Supernatant is aspirated, the cell pellet resuspended and washed once in HBSS (Hank's Balanced Salt Solution) by centrifugation for eight minutes at 300 g at room temperature. The cell pellet is resuspended in HBSS to a concentration of 4×10^6 per ml, and 100 μL of cell suspension added to each well of a flat-bottomed 96-well tissue culture plate. Assay plates are incubated for 1.5 hours at 37° C., 5% CO2 to allow background AKT phosphorylation to reduce before the compound stimulation step. […] Compound concentrations at this stage are 4-times the final concentration required in the assay plate. Cells are stimulated with compound or HBSS 0.8% DMSO by direct transfer of 50 ul/well from the compound dilution plate. The assay plate containing compound-treated cells is then incubated for 30 minutes at 37° C. A standard plate layout is used for all experiments. Compound-treated cells, in addition to positive control wells (“max MIP1α”), are stimulated with 50 μL per well of 40 ng/ml MIP1α (R&D Systems catalogue number 270-LD, lyophilized stock reconstituted to 50 μg/ml with PBS 0.1% BSA). Negative control wells (“min HBSS”), are stimulated with 50 μl/well of HBSS in the absence of MIP1α. […] Cells are incubated with MIP1α for 3 minutes, at 37° C., 5% CO2. After the three minute stimulation period, the assay plate is kept ice cold at all times. Assay plates are centrifuged for 2 minutes at 300 g, 4° C. and supernatant is removed by gently inverting, and then blotting the plate on tissue. Cells are then washed by gentle addition of 150 μL/well of ice cold HBSS and centrifugation at 300 g, for 5 minutes at 4° C. Supernatant is aspirated and the plate blotted as described above. The plate is placed on ice and cells are immediately treated with 35 μL per well of ice cold lysis buffer, prepared according to the kit instructions (per assay plate, to 5 ml of Tris lysis buffer add 100 μl of 50× protease inhibitor solution and 50 μl of each 100× phosphatase inhibitor solutions I and II). Plates are incubated on ice for 20 minutes before centrifugation at 841 g for 5 minutes, 4° C. Block buffer is aspirated from the MSD plate, and the plate washed four times with 300 μl/well Tris wash buffer. 25 μL of cell lysate is then transferred from the assay plate to the washed MSD plate which is sealed and incubated at room temperature for one hour with shaking. The plate is washed four times with 300 μL per well of Tris wash buffer before addition of 25 μL per well of sulfo-tag anti-total AKT/pAKT detection antibody (60 μl of 50× antibody stock is diluted in 1 ml block buffer mixed with 2 ml wash buffer) and incubated at room temperature for one hour with shaking. The plate is washed four times with 300 μl per well of Tris wash buffer and 150 μl per well of Read buffer is added, taking care to avoid the introduction of bubbles. The plate is immediately read using an MSD SECTOR Imager 6000. Results are exported in Excel and the percentage of phosphorylated AKT is calculated using the equation: % Phosphoprotein=((2*Phospho signal)/(Phospho signal+Total signal))*100. […]
Sequence of PI 3-Kinase Gamma (P48736 whole entry): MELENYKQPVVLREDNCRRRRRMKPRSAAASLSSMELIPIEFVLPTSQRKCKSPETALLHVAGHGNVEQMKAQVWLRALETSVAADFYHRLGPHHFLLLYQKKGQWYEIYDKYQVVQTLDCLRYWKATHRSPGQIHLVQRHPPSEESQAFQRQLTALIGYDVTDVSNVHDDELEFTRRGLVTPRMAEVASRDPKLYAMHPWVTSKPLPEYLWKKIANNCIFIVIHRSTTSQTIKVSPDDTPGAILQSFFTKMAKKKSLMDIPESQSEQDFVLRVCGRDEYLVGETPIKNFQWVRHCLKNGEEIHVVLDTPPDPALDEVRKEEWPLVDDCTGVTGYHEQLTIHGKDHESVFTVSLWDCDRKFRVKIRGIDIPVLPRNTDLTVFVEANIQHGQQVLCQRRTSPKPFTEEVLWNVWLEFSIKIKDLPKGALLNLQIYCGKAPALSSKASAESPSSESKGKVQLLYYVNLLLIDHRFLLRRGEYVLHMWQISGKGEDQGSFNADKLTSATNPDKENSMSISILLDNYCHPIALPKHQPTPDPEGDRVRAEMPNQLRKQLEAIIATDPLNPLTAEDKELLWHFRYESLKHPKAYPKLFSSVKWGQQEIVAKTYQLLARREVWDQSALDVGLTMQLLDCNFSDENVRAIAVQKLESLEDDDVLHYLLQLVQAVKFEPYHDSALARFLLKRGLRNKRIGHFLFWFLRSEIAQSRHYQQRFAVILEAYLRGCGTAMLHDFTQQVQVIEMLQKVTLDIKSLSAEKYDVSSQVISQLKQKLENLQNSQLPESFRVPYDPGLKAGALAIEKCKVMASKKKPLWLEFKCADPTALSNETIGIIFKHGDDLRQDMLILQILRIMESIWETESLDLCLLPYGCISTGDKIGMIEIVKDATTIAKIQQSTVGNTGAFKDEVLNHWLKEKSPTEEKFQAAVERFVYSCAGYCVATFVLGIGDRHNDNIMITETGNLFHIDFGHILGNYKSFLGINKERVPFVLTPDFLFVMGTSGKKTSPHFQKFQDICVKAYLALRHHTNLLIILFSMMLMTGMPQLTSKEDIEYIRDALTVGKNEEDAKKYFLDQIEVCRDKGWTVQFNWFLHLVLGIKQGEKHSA
Take `COc1ncc(-c2cccc3nc([C@@H]4C[C@H](O)CN4c4nc(N)nc(C)c4C#N)n(-c4ccccc4)c(=O)c23)cn1` [Example 22, 2-Amino-4-((2S,4S)-4-hydroxy-2-(5-(2-methoxypyrimidin-5-yl)-4-oxo-3-phenyl-3,4-dihydroquinazolin-2-yl)pyrrolidin-1-yl)-6-methylpyrimidine-5-carbonitrile]: the IC50 – broadly, the concentration needed to halve the response being measured – came to 18 nM.

For `Cc1nc(N)nc(N2C[C@@H](O)C[C@H]2c2nc3cccc(-c4cccnc4)c3c(=O)n2-c2ccccc2)c1C#N` [Example 24, 2-Amino-4-((2S,4S)-4-hydroxy-2-(4-oxo-3-phenyl-5-(pyridin-3-yl)-3,4-dihydroquinazolin-2-yl)pyrrolidin-1-yl)-6-methylpyrimidine-5-carbonitrile], the IC50 worked out at 9 nM.

Regarding `COc1cncc(-c2cccc3nc([C@@H]4C[C@H](O)CN4c4nc(N)nc(C)c4C#N)n(-c4ccccc4)c(=O)c23)c1` [Example 25, 2-Amino-4-((2S,4S)-4-hydroxy-2-(5-(5-methoxypyridin-3-yl)-4-oxo-3-phenyl-3,4-dihydroquinazolin-2-yl)pyrrolidin-1-yl)-6-methylpyrimidine-5-carbonitrile], the IC50 was 49 nM.

With `Cc1nc(N)nc(N2C[C@@H](O)C[C@H]2c2nc3cccc(-c4cncnc4)c3c(=O)n2-c2ccccc2)c1C#N` [Example 26, 2-Amino-4-((2S,4S)-4-hydroxy-2-(4-oxo-3-phenyl-5-(pyrimidin-5-yl)-3,4-dihydroquinazolin-2-yl)pyrrolidin-1-yl)-6-methylpyrimidine-5-carbonitrile], the IC50 was 170 nM.

`COc1ccc(-c2cccc3nc([C@@H]4C[C@H](O)CN4c4nc(N)nc(C)c4C#N)n(-c4ccccc4)c(=O)c23)cn1` [Example 27, 2-Amino-4-((2S,4S)-4-hydroxy-2-(5-(6-methoxypyridin-3-yl)-4-oxo-3-phenyl-3,4-dihydroquinazolin-2-yl)pyrrolidin-1-yl)-6-methylpyrimidine-5-carbonitrile]: the IC50 is 63 nM.

As for `Cc1nc(N)nc(N2C[C@@H](O)C[C@H]2c2nc3cccc(-c4cnn(CCO)c4)c3c(=O)n2-c2ccccc2)c1C#N` [Example 28, 2-Amino-4-((2S,4S)-4-hydroxy-2-(5-(1-(2-hydroxyethyl)-1H-pyrazol-4-yl)-4-oxo-3-phenyl-3,4-dihydroquinazolin-2-yl)pyrrolidin-1-yl)-6-methylpyrimidine-5-carbonitrile], the IC50 was 120 nM.

Regarding `CCOc1ncc(-c2c(F)ccc3nc([C@@H]4C[C@H](O)CN4c4nc(N)nc(C)c4C#N)n(-c4ccccc4)c(=O)c23)cn1` [Example 29, 2-Amino-4-((2S,4S)-2-(5-(2-ethoxypyrimidin-5-yl)-6-fluoro-4-oxo-3-phenyl-3,4-dihydroquinazolin-2-yl)-4-hydroxypyrrolidin-1-yl)-6-methylpyrimidine-5-carbonitrile], the IC50 was 38 nM.

On to `Cc1nc(N)nc(N2C[C@@H](F)C[C@H]2c2nc3cccc(-c4cnn(C)c4)c3c(=O)n2-c2ccccc2)c1C#N` [Example 30, 2-Amino-4-((2S,4S)-4-fluoro-2-(5-(1-methyl-1H-pyrazol-4-yl)-4-oxo-3-phenyl-3,4-dihydroquinazolin-2-yl)pyrrolidin-1-yl)-6-methylpyrimidine-5-carbonitrile], for which the IC50 worked out at 11 nM.

Regarding `Cc1nc(N)nc(N2C[C@@H](O)C[C@H]2c2nc3ccc(F)c(-c4cn(C)cn4)c3c(=O)n2-c2ccccc2)c1C#N` [Example 31, 2-Amino-4-((2S,4S)-2-(6-fluoro-5-(1-methyl-1H-imidazol-4-yl)-4-oxo-3-phenyl-3,4-dihydroquinazolin-2-yl)-4-hydroxypyrrolidin-1-yl)-6-methylpyrimidine-5-carbonitrile], the IC50 is 240 nM.

In the case of `CCOc1ncc(-c2cccc3nc([C@@H]4CCCN4c4nc(N)nc(C)c4C#N)n(-c4ccccc4)c(=O)c23)cn1` [Example 32, (S)-2-Amino-4-(2-(5-(2-ethoxypyrimidin-5-yl)-4-oxo-3-phenyl-3,4-dihydroquinazolin-2-yl)pyrrolidin-1-yl)-6-methylpyrimidine-5-carbonitrile], the IC50 came to 720 nM.

In the case of `N#Cc1c(N)ncnc1N1CCC[C@H]1c1nc2cccc(C#CCO)c2c(=O)n1-c1ccccc1` [Example 33, (S)-4-Amino-6-(2-(5-(3-hydroxyprop-1-yn-1-yl)-4-oxo-3-phenyl-3,4-dihydroquinazolin-2-yl)pyrrolidin-1-yl)pyrimidine-5-carbonitrile], the IC50 was 120 nM.
